Laboratory results from publication PMC11484808, “Streamlined analysis of drug targets by proteome integral solubility alteration indicates organ-specific engagement” (Nature Communications, 2024).
pKd: −log10 of the molar value.

Target: T1, Pirin (Homo sapiens, UniProt O00625)
T1 construct: gene PIR; recombinant human pirin (Abcam, ab123170)
T1 sequence (O00625 1-290): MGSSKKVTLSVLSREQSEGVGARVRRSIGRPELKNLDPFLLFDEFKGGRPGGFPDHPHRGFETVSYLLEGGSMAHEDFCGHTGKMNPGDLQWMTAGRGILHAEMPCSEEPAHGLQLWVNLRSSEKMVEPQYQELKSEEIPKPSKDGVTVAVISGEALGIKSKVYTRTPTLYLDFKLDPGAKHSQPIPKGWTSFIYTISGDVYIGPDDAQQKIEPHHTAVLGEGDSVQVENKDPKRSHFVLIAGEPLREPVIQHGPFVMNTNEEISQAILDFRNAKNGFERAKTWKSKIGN
Assay: SPR (Biacore T200), steady state; also TPP-PISA stabilization in extracts
Format: binding

CC(C)Cc1ccc(C(C)C(=O)O)cc1 (stereo not shown) [Ibuprofen]
pKd: ~3.26
